Holding throughout (type): in vivo, mouse
One test deals with total myostatin in serum. The test can be described thus: Circulating total myostatin in serum (acidification ELISA), dexamethasone model. Conditions: as compared to apitegromab. An excerpt:
Briefly, serum samples were acidified at low pH (e.g., pH ˜2.5) to dissociate the bound antibody from the immune complex and to convert all myostatin in the sample to the active form of growth factor (i.e., mature myostatin). Samples were then neutralized and assayed for the presence of mature myostatin on ELISA plates coated with anti-mature myostatin antibodies as capture reagents.
(In an ELISA, binding on a coated surface is turned into a signal by an enzyme label.)

Test [1] has as its system male C57/BL6 mice on high fat diet. The test can be described thus: Diet-induced obesity model, Ab109 with 0.01 or 0.04 mg/kg semaglutide (Example 9). Conditions: for loss in quadriceps weight: FIG. 21A. As for the experimental part:
Male C57/BL6 male mice (n=8/group) were placed on a 60% high fat diet at ˜6 weeks of age and maintained on the 60% high fat diet until 21 weeks of age (Groups 1-12), at which time the study began (day −7). On day −7, animals in groups 1-12 were switched to a 45% high fat diet and maintained on the 45% high fat diet until the animals were terminated. […] Body weight was measured three times per week and qNMR measurements of lean mass and fat mass were obtained pre-dose on day 0 and on days 7, 14 and 21. Fasting glucose was measured on day 18 after a 4 hour fast.
Animals in groups 3-12 were dosed with semaglutide daily for 3 weeks, then terminated. Animals in groups 1, 3, and 4 were treated with IgG control antibody, and those in groups 2, 5-12 were treated with myostatin activation inhibiting antibody treatment, for 3 weeks.
At termination, left gastrocnemius and quadriceps muscles were removed and frozen; the liver was weighed, one lobe was frozen; epididymal (perigonadal) adipose tissue was removed and weighed; inguinal (subcutaneous) adipose tissue was removed and weighed; and a terminal serum bleed was obtained.

For test [2] the test system is unchanged. The test can be described thus: Diet-induced obesity model, semaglutide with Ab109, withdrawal and continuous arms (Example 6). The settings on record: for Relative Fat Mass Day 63 (% Body Fat): 60%/45% high fat diet. As for the experimental part: Male C57/BL6 male mice (n=8/group) were either fed regular mouse chow (Group 1) or placed on a 60% high fat diet at six weeks of age and maintained on the 60% high fat diet until 21 weeks of age (Groups 2-8), at which time the study began (day 0). On day 0, animals in groups 2-8 were switched to a 45% high fat diet and maintained on the 45% high fat diet until the animals were terminated. […] Body weight was measured three times per week and qNMR measurements of lean mass and fat mass were obtained on the days set forth.
Animals in groups 3 and 4 were dosed with semaglutide weekly for 14 days, then terminated. Animals in groups 5 and 6 (weight regain groups), were treated with semaglutide for 35 days, then the semaglutide treatment was ended while the myostatin activation inhibiting antibody treatment continued until the animals were terminated on day 63. The animals in Groups 7 and 8 were treated with semaglutide for 63 days, i.e., they remained on semaglutide until the study terminated on day 63.
At termination, left and right gastrocnemius muscles were removed and frozen; the liver was weighed, one lobe was fixed, and the remainder was frozen; epididymal adipose tissue was removed and weighed; subcutaneous adipose tissue was removed and weighed; and a terminal serum bleed was obtained.

A further test deals with circulating leptin. In words: Circulating leptin (U-PLEX Metabolic Hormones Combo 1), Example 6. The settings on record: for Leptin Day 64 (circulating leptin): 60%/45% high fat diet. The protocol: Circulating leptin was measured using the U-PLEX Metabolic Hormones Combo 1 (mouse) according to manufacturer's instructions (Meso Scale Diagnostics, #K15306K-2). As expected, circulating leptin was higher in animals fed the high fat diet than animals fed a standard chow.

The mark [3] stands for this setting: semaglutide 0.04 mg/kg day 7-35 (regain arm) with control hIgG.
Setting [4] is: semaglutide 0.04 mg/kg day 7-63 with control hIgG.
[5] abbreviates: semaglutide 0.04 mg/kg and hIgG.

“apitegromab: prior art myostatin-selective activation inhibitor antibody targeting pro/latent myostatin [reference compound]”: the “accumulation of total or latent myostatin in serum samples from dosed subjects” value in the test on total myostatin in serum was “increased accumulation”.

As to semaglutide [reference compound], the “loss in lean mass” value in test [1] (0.01 mg/kg semaglutide, FIG. 20B) was 4.7%. Moreover, the lean mass lost entry in test [1] (0.04 mg/kg semaglutide and hIgG, 3 weeks, FIG. 20A) is recorded as “about 9.5%”. In addition, the “loss in quadriceps weight” value is −7.6% in test [1] (semaglutide high dose (0.04 mg/kg)) and −4.8% in test [1] (semaglutide low dose (0.01 mg/kg)). Moreover, the entries for the “Relative Fat Mass Day 63 (% Body Fat)” value in test [2] (setting [3]) and in test [2] (setting [4]) were 28.69 % Body Fat and 14.84 % Body Fat, respectively. The “lean mass lost while on semaglutide” value in test [2] (setting [5]) was “about 4%”. The “net loss of lean mass at the end of the study” value in test [2] (setting [5]) came out at 2.5%. Also, the fat mass entry in test [2] (semaglutide 0.04 mg/kg, FIG. 14D) is recorded as “induced fat mass loss”. In addition, the “Leptin Day 64 (circulating leptin)” value was 37.87 ng/mL in the test with circulating leptin (setting [3]) and 6.357 ng/mL with circulating leptin (setting [4]). Also, the circulating leptin result in the test with circulating leptin (treatment arm as in the words, FIG. 14K) is “Continuous semaglutide administration lowered circulating leptin”.

The values are drawn from patent US12338279B2, “Selective and potent inhibitory antibodies of myostatin activation” (SCHOLAR ROCK, INC., priority 2022, dated 2025).
